Assay results: patent publication US20240343747A1, “Heteroaryl compounds as inhibitors of TYK2, composition and application thereof” (Accro Bioscience (HK) Limited, priority 2021, published 2024)

Key:
[1] = Plasma protein binding test, human; format: in vitro ADME; conditions: for plasma protein binding (in words): conclusion from Table 7, all species tested; for fraction unbound at 4 h, 2 μM: human plasma
Description: • 1. Test compound and control compound were dissolved in dimethyl sulfoxide (DMSO) to achieve 10 mM stock solutions. DMSO working solutions were prepared at 400 μM. To prepare the loading matrix, compound working solutions (5 μL) were added in a 1:200 ratio to blank matrix (995 μL), and mixed thoroughly. • 2. To prepare the time zero (TO) samples to be used for recovery determination, 50 μL aliquots of loading matrix were transferred in triplicate to the sample collection plate. The samples were immediately matched with opposite blank buffer to obtain a final volume of 100 μL of 1:1 matrix/dialysis buffer (v/v) in each well. 500 μL of stop solution were added to these TO samples. They were then stored at 2-8° C. pending further processes along with other post-dialysis samples. • 3. To load the dialysis device, an aliquot of 150 μL of the loading matrix was transferred to the donor side of each dialysis well in triplicate, and 150 μL of the dialysis buffer was loaded to the receiver side of the well. The dialysis plate was placed in a humidified incubator at 37° C. with 5% CO2 on a shaking platform that rotated slowly (about 100 rpm) for 4 hours • 4. At the end of the dialysis, aliquots of 50 μL of samples were taken from both the buffer side and the matrix side of the dialysis device. These samples were transferred into new 96-well plates. Each sample was mixed with an equal volume of opposite blank matrix (buffer or matrix) to reach a final volume of 100 μL of 1:1 matrix/dialysis buffer (v/v) in each well. All samples were further processed by adding 500 μL of stop solution containing internal standards. The mixture was vortexed and centrifuged at 4000 rpm for about 20 minutes. An aliquot of 100 μL of supernatant of all the samples was then removed for LC-MS/MS analysis • 5. The single blank samples were prepared by transferring […] of blank matrix to a 96 well plate and adding 50 μL of blank PBS buffer to each well. The blank plasma must match the species of plasma used in the plasma side of the well. Then the matrix-matched samples were further processed by adding 500 μL of stop solution containing internal standards, following the same sample processing method as the dialysis samples.
The % Unbound and % Bound were calculated using the following equations:
% Unbound=100×[F]/[T]; % Bound=100−% Unbound
Where [F] is the analyte concentration or peak area ratio of analyte/internal standard on the buffer (receiver) side of the membrane, [T] is the analyte concentration or peak area ratio of analyte/internal standard on the matrix (donor) side of the membrane, and [T0] is the analyte concentration or the peak area ratio of analyte/internal standard in the loading matrix sample at time zero.

[2] = Plasma protein binding test, monkey; format: in vitro ADME
Description: • 1. Test compound and control compound were dissolved in dimethyl sulfoxide (DMSO) to achieve 10 mM stock solutions. DMSO working solutions were prepared at 400 μM. To prepare the loading matrix, compound working solutions (5 μL) were added in a 1:200 ratio to blank matrix (995 μL), and mixed thoroughly. • 2. To prepare the time zero (TO) samples to be used for recovery determination, 50 μL aliquots of loading matrix were transferred in triplicate to the sample collection plate. The samples were immediately matched with opposite blank buffer to obtain a final volume of 100 μL of 1:1 matrix/dialysis buffer (v/v) in each well. 500 μL of stop solution were added to these TO samples. They were then stored at 2-8° C. pending further processes along with other post-dialysis samples. • 3. To load the dialysis device, an aliquot of 150 μL of the loading matrix was transferred to the donor side of each dialysis well in triplicate, and 150 μL of the dialysis buffer was loaded to the receiver side of the well. The dialysis plate was placed in a humidified incubator at 37° C. with 5% CO2 on a shaking platform that rotated slowly (about 100 rpm) for 4 hours • 4. At the end of the dialysis, aliquots of 50 μL of samples were taken from both the buffer side and the matrix side of the dialysis device. […]
The % Unbound and % Bound were calculated using the following equations: […]

[3] = Pharmacokinetic evaluation in beagle dog; format: in vivo; conditions: for F / AUC / Vd / clearance / half-life / Cmax / Tmax: beagle dog; for plasma exposure in beagle dog (in words): conclusion from Table 11; for AUC / Vd / clearance / half-life / Cmax / Tmax: plasma
Description: The beagle dog pharmacokinetic characteristics of compounds were tested by standard protocols. The candidate compounds were made into clear solution for single intravenous injection (i.v.) and suspension for oral administration (p.o.). Intravenous and oral vehicle is 5% DMSO+10% Solutol+85% Saline. The experiment used 9 dog and 3 dog for intravenous at a dose of 1 mg/kg. Plasma samples were collected at 0 h (before dosing) and 0.083 h, 0.25 h, 0.5 h, 1 h, 2 h, 4 h, 8 h, 24 h after dosing. 3 dog were orally administrated at a dose of 5 mg/kg and 3 dog were orally administrated at a dose of 15 mg/kg. Plasma samples were collected at 0 h (before dosing) and 0.25 h, 0.5 h, 1 h, 2 h, 4 h, 6 h, 8 h, 24 h after dosing.
Blood samples were placed in tubes containing K2-EDTA and stored on ice until centrifuged. The blood samples were centrifuged at 6800 g for 6 minutes at 2-8° C. within 1 h after collected, and stored frozen at approximately −80° C.
The analytical results were confirmed using quality control samples for intra-assay variation. The accuracy of >66.7% of the quality control samples and 50% of all QC samples at each concentration level were between 80-120% of the known value(s).
Standard set of parameters including area under the curve (AUC(0-t) and AUC(0-∞)), elimination half-live (T1/2), maximum plasma concentration (Cmax), time to reach maximum plasma concentration (Tmax) were calculated using noncompartmental analysis modules in FDA certified pharmacokinetic program Phoenix WinNonlin 7.0 (Pharsight, USA) by the Study Director.

[4] = target: JAK1 JH1 (Homo sapiens (Human), UniProt P23458); assay: Competitive binding assay (kinase-tagged phage, qPCR), JAK1 JH1
Chain of JAK1 JH1 (P23458 875-1153): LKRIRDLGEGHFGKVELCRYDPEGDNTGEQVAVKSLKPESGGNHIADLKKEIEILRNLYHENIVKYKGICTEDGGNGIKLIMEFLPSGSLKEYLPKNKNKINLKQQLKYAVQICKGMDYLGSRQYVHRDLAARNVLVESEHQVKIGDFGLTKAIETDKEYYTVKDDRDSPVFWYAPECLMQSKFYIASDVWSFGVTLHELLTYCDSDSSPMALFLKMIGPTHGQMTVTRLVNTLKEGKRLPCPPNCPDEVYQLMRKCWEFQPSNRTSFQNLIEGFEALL
Description: For most assays, kinase-tagged T7 phage strains were prepared in an E. coli host derived from the BL21 strain. E. coli were grown to log-phase and infected with T7 phage and incubated with shaking at 32° C. until lysis. The lysates were centrifuged and filtered to remove cell debris. The remaining kinases were produced in HEK-293 cells and subsequently tagged with DNA for qPCR detection. Streptavidin coated magnetic beads were treated with biotinylated small molecule ligands for 30 minutes at room temperature to generate affinity resins for kinase assays. The liganded beads were blocked with excess biotin and washed with blocking buffer (SeaBlock (Pierce), 1% BSA, 0.05% Tween 20, 1 mM DTT) to remove unbound ligand and to reduce non-specific binding. […] Test compounds were prepared as 111X stocks in 100% DMSO. Dissociation constants (Kds) were determined using an 11-point 3-fold compound dilution series with three DMSO control points. All compounds for Kd measurements are distributed by acoustic transfer (non-contact dispensing) in 100% DMSO. The compounds were then diluted directly into the assays such that the final concentration of DMSO was 0.9%. All reactions performed in polypropylene 384-well plate. Each was a final volume of 0.02 ml. The assay plates were incubated at room temperature with shaking for 1 hour and the affinity beads were washed with wash buffer (1×PBS, 0.05% Tween 20). The beads were then re-suspended in elution buffer (1×PBS, 0.05% Tween 20, 0.5 μM nonbiotinylated affinity ligand) and incubated at room temperature with shaking for 30 minutes. The kinase concentration in the eluates was measured by qPCR.
An 11-point 3-fold serial dilution of each test compound was prepared in 100% DMSO at 100× final test concentration and subsequently diluted to 1× in the assay (final DMSO concentration=1%). Most Kds were determined using a compound top concentration=30,000 nM. If the initial Kd determined was <0.5 nM (the lowest concentration tested), the measurement was repeated with a serial dilution starting at a lower top concentration.
Binding constants (Kds) were calculated with a standard dose-response curve using the Hill equation: […]
The Hill Slope was set to −1.
Curves were fitted using a non-linear least square fit with the Levenberg-Marquardt algorithm.

Row | plasma protein binding (in words) [1] | fraction unbound at 4 h, 2 μM [1] | fraction unbound at 4 h, 2 μM [2] | F ([3]; p.o. 5 mg/kg) [%] | F ([3]; p.o. 15 mg/kg) [%] | plasma exposure in beagle dog (in words) [3] | AUC ([3]; iv, i.v. 1 mg/kg) [ng·h/mL] | Vd ([3]; iv, i.v. 1 mg/kg) [L/kg] | clearance ([3]; iv, i.v. 1 mg/kg) [mL/min/kg] | half-life ([3]; iv, i.v. 1 mg/kg) [h] | AUC ([3]; po, p.o. 5 mg/kg) [ng·h/mL] | Cmax ([3]; po, p.o. 5 mg/kg) [ng/mL] | Tmax ([3]; po, p.o. 5 mg/kg) [h] | AUC ([3]; po, p.o. 15 mg/kg) [ng·h/mL] | Cmax ([3]; po, p.o. 15 mg/kg) [ng/mL] | Tmax ([3]; po, p.o. 15 mg/kg) [h] | Kd [4] [µM] | Structure (SMILES)
1 | moderate to high | 0.084 | 0.076 | 79 | 120 | excellent plasma exposure | 4900 | 0.56 | 4 | 2.1 | 19400 | 3100 | 1 | 88000 | 9870 | 1.7 |  | [2H]C([2H])([2H])NC(=O)c1nnc(NC(=O)C2CC2)cc1Nc1cccc(-c2cc(P(=O)(C3CC3)C3CC3)n(C)n2)c1OC [Compound B41, 6-(cyclopropanecarboxamido)-4-((3-(5-(dicyclopropylphosphoryl)-1-methyl-1H-pyrazol-3-yl)-2-methoxyphenyl)amino)-N-(methyl-d3)pyridazine-3-carboxamide]
2 |  |  |  | 46 | 21 | excellent plasma exposure | 9240 | 0.33 | 1.9 | 2.2 | 21300 | 3980 | 0.83 | 28600 | 4870 | 0.67 | > 30 | CCC(=O)c1cnc(NC(=O)C2CC2)cc1Nc1cccc(-c2cc(P(=O)(C3CC3)C3CC3)n(C)n2)c1OC [Compound B37, N-(4-((3-(5-(dicyclopropylphosphoryl)-1-methyl-1H-pyrazol-3-yl)-2-methoxyphenyl)amino)-5-propionylpyridin-2-yl)cyclopropanecarboxamide]
3 | moderate to high | 0.048 | 0.042 |  |  |  |  |  |  |  |  |  |  |  |  |  | > 30 | CCC(=O)c1cnc(NC(=O)C2CC2)cc1Nc1cccc(-c2cc(P(C)(C)=O)n(C)n2)c1OC [Compound B2, N-(4-((3-(5-(dimethylphosphoryl)-1-methyl-1H-pyrazol-3-yl)-2-methoxyphenyl)amino)-5-propionylpyridin-2-yl)cyclopropanecarboxamide]
4 | moderate to high | 0.051 |  |  |  |  |  |  |  |  |  |  |  |  |  |  |  | [2H]C([2H])([2H])n1nc(-c2cccc(Nc3cc(NC(=O)C4CC4)ncc3C(=O)CC)c2OC)cc1P(C)(C)=O [Compound B22]
